Data published in the supplement of paper PMC10307832.

Assays:
Test in all cases: relative viability (nuclei count vs DMSO), 5 days (fraction); higher = more cells survive
[1] = compound: CC(C)N(CCCNC(=O)Nc1ccc(C(C)(C)C)cc1)C[C@H]1O[C@@H](n2ccc3c(N)ncnc32)[C@H](O)[C@@H]1O + CS(=O)(=O)N1CCN(Cc2cc3nc(-c4cccc5[nH]ncc45)nc(N4CCOCC4)c3s2)CC1 [Pictilisib] (partner 1 µM)
Procedure, shortened: (§1)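 The day after seeding in 1536-well plates, lung cancer cell lines were treated by pin tool with a single drug, or with a fixed anchor-drug dose together with five library-drug doses (not always all listed) in √10 steps. After 5 days, a combined fix-and-stain solution (final 0.05% Triton X-100, 1% formaldehyde, 1 ug/ml Hoechst) was added. Nuclei counted on 4× images gave relative viability as treated counts over vehicle counts, reported as the median of duplicate plates.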

[2] = compound: CC(C)N(CCCNC(=O)Nc1ccc(C(C)(C)C)cc1)C[C@H]1O[C@@H](n2ccc3c(N)ncnc32)[C@H](O)[C@@H]1O + COc1cc2c(Oc3ccc(NC(=O)C4(C(=O)Nc5ccc(F)cc5)CC4)cc3F)ccnc2cc1OCCCN1CCOCC1 [Foretinib] (partner 0.25 µM)
Procedure, shortened: as §1

Shikonin + Dasatinib = compound: CC(C)=CC[C@@H](O)C1=CC(=O)c2c(O)ccc(O)c2C1=O [Shikonin] + Cc1nc(Nc2ncc(C(=O)Nc3c(C)cccc3Cl)s2)cc(N2CCN(CCO)CC2)n1 [Dasatinib] (partner 0.075 µM)
Procedure, shortened: as §1

[3] = compound: CC(C)N(CCCNC(=O)Nc1ccc(C(C)(C)C)cc1)C[C@H]1O[C@@H](n2ccc3c(N)ncnc32)[C@H](O)[C@@H]1O + CC(=O)Nc1cccc(-n2c(=O)n(C3CC3)c(=O)c3c(Nc4ccc(I)cc4F)n(C)c(=O)c(C)c32)c1 [Trametinib] (partner 0.02 µM)
Procedure, shortened: as §1

Row | Cell Line | relative viability ([1]; first compound 0.08 µM) | relative viability ([1]; first compound 0.253 µM) | relative viability ([1]; first compound 0.8 µM) | relative viability ([1]; first compound 2.53 µM) | relative viability ([1]; first compound 8 µM) | relative viability ([2]; first compound 0.08 µM) | relative viability ([2]; first compound 0.253 µM) | relative viability ([2]; first compound 0.8 µM) | relative viability ([2]; first compound 2.53 µM) | relative viability ([2]; first compound 8 µM) | relative viability (Shikonin + Dasatinib; first compound 0.01 µM) | relative viability (Shikonin + Dasatinib; first compound 0.1 µM) | relative viability (Shikonin + Dasatinib; first compound 0.3162 µM) | relative viability (Shikonin + Dasatinib; first compound 1 µM) | relative viability ([3]; first compound 0.08 µM) | relative viability ([3]; first compound 0.253 µM) | relative viability ([3]; first compound 0.8 µM) | relative viability ([3]; first compound 2.53 µM) | relative viability ([3]; first compound 8 µM)
1 | ChaGo-K-1 | 0.771 | 0.726 | 0.658 | 0.632 | 0.912 | 0.915 | 0.924 | 0.974 | 0.901 | 0.976 | 0.501 | 0.616 | 0.56 | 0.67 | 0.91 | 0.875 | 0.876 | 0.876 | 0.843
2 | COR-L 105 | 0.413 | 0.301 | 0.408 | 0.369 | 0.404 | 1.14 | 0.99 | 1.02 | 1.07 | 1.03 | 0.329 | 0.329 | 0.307 | 0.335 | 0.492 | 0.402 | 0.496 | 0.465 | 0.537
3 | NCI-H1975 | 0.289 | 0.268 | 0.197 | 0.271 | 0.289 | 0.853 | 0.916 | 0.871 | 0.707 | 0.765 | 0.354 | 0.344 | 0.344 | 0.359 | 0.347 | 0.29 | 0.167 | 0.308 | 0.32
4 | NCI-H2009 | 0.817 | 0.663 | 0.826 | 0.976 | 0.854 | 1.26 | 1.19 | 1.23 | 1.24 | 1.19 | 0.281 | 0.301 | 0.239 | 0.134 | 0.272 | 0.244 | 0.301 | 0.255 | 0.296
5 | SW 1573 | 0.656 | 0.438 | 0.546 | 0.55 | 0.585 | 0.81 | 0.707 | 0.825 | 0.927 | 1.08 | 0.591 | 0.546 | 0.444 | 0.144 | 0.591 | 0.565 | 0.588 | 0.67 | 0.559
6 | NCI-H2347 | 0.45 | 0.546 | 0.661 | 0.582 | 0.842 | 1.1 | 0.778 | 0.865 | 0.721 | 0.993 | 0.268 | 0.351 | 0.296 | 0.2 | 0.248 | 0.281 | 0.251 | 0.284 | 0.282
7 | HCC-366 | 0.128 | 0.157 | 0.117 | 0.181 | 0.194 | 0.89 | 0.939 | 0.975 | 0.9 | 0.867 | 0.629 | 1.12 | 0.673 | 0.706 | 0.264 | 0.36 | 0.325 | 0.344 | 0.287
8 | EMC-BAC-2 | 0.601 | 0.49 | 0.581 | 0.522 | 0.502 | 0.975 | 0.98 | 1.04 | 1.09 | 0.935 | 0.301 | 0.322 | 0.375 | 0.298 | 0.895 | 0.851 | 0.965 | 0.854 | 0.819
